Experimental findings from PubChem BioAssay AID2060883 (Molecular Pharmacology Branch, DTP, NCI, 2025) are described below.

In this assay the test system is 843782-103-R-J1-PDC complex spheroid viability. Kind of assay: Anticancer human tumor 843782-103-R-J1-PDC patient-derived lung adenocarcinoma cell line growth inhibition [RAS]. Particulars: for viability, T/C: stronger effect = lower value. The method, boiled down: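 Multi-cell-type spheroids: tumor cells plus HUVEC endothelial cells and mesenchymal stem cells. RAS-pathway inhibitors were combined with targeted agents, each dosed in half-log steps down from clinical Cmax, or from 10 microM when Cmax was unknown.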

The mark [1] stands for this setting: curve of first compound, second compound 0.0316 µM.
Where [2] appears, read: curve of first compound, second compound 0.1 µM.
Setting [3] is: curve of first compound, second compound 0.316 µM.
Setting [4] is: curve of first compound, second compound 1 µM.
[5] abbreviates: second compound 0.0316 µM, first compound 0.0316 µM.
The mark [6] stands for this setting: second compound 0.0316 µM, first compound 0.1 µM.
The mark [7] stands for this setting: second compound 0.0316 µM, first compound 0.316 µM.
[8] abbreviates: second compound 0.0316 µM, first compound 1 µM.
Where [9] appears, read: second compound 0.1 µM, first compound 0.0316 µM.
Where [10] appears, read: second compound 0.1 µM, first compound 0.1 µM.
[11] abbreviates: second compound 0.1 µM, first compound 0.316 µM.
Where [12] appears, read: second compound 0.1 µM, first compound 1 µM.
[13] abbreviates: second compound 0.316 µM, first compound 0.0316 µM.
The mark [14] stands for this setting: second compound 0.316 µM, first compound 0.1 µM.
[15] abbreviates: second compound 0.316 µM, first compound 0.316 µM.
Where [16] appears, read: second compound 0.316 µM, first compound 1 µM.
Where [17] appears, read: second compound 1 µM, first compound 0.0316 µM.
Where [18] appears, read: second compound 1 µM, first compound 0.1 µM.
[19] abbreviates: second compound 1 µM, first compound 0.316 µM.
Setting [20] is: second compound 1 µM, first compound 1 µM.

“And” between values parts separate entries of the source, which are not always exact repeats. Equal values may be shown once.
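Further: viability read after seven days of compound exposure.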

With `C=CC(=O)Nc1cc(Nc2nccc(-c3cn(C)c4ccccc34)n2)c(OC)cc1N(C)CCN(C)C` + C=CC(=O)N1CCN(c2nc(OCC3CCCN3C)nc3c(F)c(-c4nc(N)cc(C)c4C(F)(F)F)c(Cl)cc23)C(C)C1, the IC50 (usually the midpoint of a concentration-inhibition curve) worked out at 320 nM (curve of first compound, second compound 0.00316 µM); 352 nM (curve of first compound, second compound 0.01 µM); 539 nM under setting [1]; 377 nM under setting [2]; 361 nM under setting [3]; 310 nM under setting [4]. Moreover, the viability, T/C – broadly, the ratio of treated to control – is 93.5% (second compound 0.00316 µM, first compound 0.00316 µM); 90.7% (second compound 0.00316 µM, first compound 0.01 µM); 80.1% (second compound 0.00316 µM, first compound 0.0316 µM); 82.9% (second compound 0.00316 µM, first compound 0.1 µM); 49.8% (second compound 0.00316 µM, first compound 0.316 µM); 38.9% (second compound 0.00316 µM, first compound 1 µM). Also, the viability, T/C (second compound 0.01 µM, first compound 0.00316 µM) is 91.6%; the viability, T/C (second compound 0.01 µM, first compound 0.01 µM) was 84.5%; the viability, T/C (second compound 0.01 µM, first compound 0.0316 µM) was 83.5%; the viability, T/C (second compound 0.01 µM, first compound 0.1 µM) was 76.4%; the viability, T/C (second compound 0.01 µM, first compound 0.316 µM) was 50.6%; the viability, T/C (second compound 0.01 µM, first compound 1 µM) was 38.1%. For the same molecule, the viability, T/C runs as follows: (second compound 0.0316 µM, first compound 0.00316 µM) 91.1%; (second compound 0.0316 µM, first compound 0.01 µM) 88.2%; under setting [5], 74.4%; under setting [6], 67%; under setting [7], 51.5%; under setting [8], 46.8%. Moreover, the viability, T/C is 87.8% (second compound 0.1 µM, first compound 0.00316 µM); 84.5% (second compound 0.1 µM, first compound 0.01 µM); 90.4% under setting [9]; 75.8% under setting [10]; 53.4% under setting [11]; 34.1% under setting [12]. For the same molecule, the viability, T/C is, setting by setting: (second compound 0.316 µM, first compound 0.00316 µM) 87%; (second compound 0.316 µM, first compound 0.01 µM) 94%; under setting [13], 77.2%; under setting [14], 70.2%; under setting [15], 52%; under setting [16], 35.5%. The viability, T/C (second compound 1 µM, first compound 0.00316 µM) is 90.3%; the viability, T/C (second compound 1 µM, first compound 0.01 µM) is 78.7%; the viability, T/C under setting [17] is 84.9%; the viability, T/C under setting [18] was 71%; the viability, T/C under setting [19] was 49.7%; the viability, T/C under setting [20] was 32.5%.
Turning to `CCC(CC)c1cc(NC2CCC(N)C2)n2nccc2n1` (centres undefined) + C#Cc1c(F)ccc2cc(O)cc(-c3ncc4c(N5CC6CCC(C5)N6)nc(OCC56CCCN5CC(F)C6)nc4c3F)c12, the concentration for half-maximal inhibition (IC50) reads like this: under setting [1], 1850 nM; under setting [2], 1900 nM; under setting [3], 1820 nM; under setting [4], 1740 nM; (curve of first compound, second compound 3.16 µM) 1260 nM; (curve of first compound, second compound 10 µM) 642 nM. Further, the viability, T/C under setting [5] is 107%; the viability, T/C under setting [6] is 102%; the viability, T/C under setting [7] was 100%; the viability, T/C under setting [8] was 108%; the viability, T/C (second compound 0.0316 µM, first compound 3.16 µM) was 2.66%; the viability, T/C (second compound 0.0316 µM, first compound 10 µM) was 0.77%. Besides, the viability, T/C reads like this: under setting [9], 112%; under setting [10], 105%; under setting [11], 114%; under setting [12], 111%; (second compound 0.1 µM, first compound 3.16 µM) 2.16%; (second compound 0.1 µM, first compound 10 µM) 0.62%. Besides, the viability, T/C under setting [13] is 113%; the viability, T/C under setting [14] is 109%; the viability, T/C under setting [15] was 99.4%; the viability, T/C under setting [16] is 102%; the viability, T/C (second compound 0.316 µM, first compound 3.16 µM) is 2.35%; the viability, T/C (second compound 0.316 µM, first compound 10 µM) is 0.68%. Moreover, the viability, T/C reads like this: under setting [17], 89.2%; under setting [18], 98%; under setting [19], 96.7%; under setting [20], 95.2%; (second compound 1 µM, first compound 3.16 µM) 1.42%; (second compound 1 µM, first compound 10 µM) 0.57%. For the same molecule, the viability, T/C reads like this: (second compound 3.16 µM, first compound 0.0316 µM) 86.4%; (second compound 3.16 µM, first compound 0.1 µM) 83.9%; (second compound 3.16 µM, first compound 0.316 µM) 91.3%; (second compound 3.16 µM, first compound 1 µM) 62.4%; (second compound 3.16 µM, first compound 3.16 µM) 2.2%; (second compound 3.16 µM, first compound 10 µM) 0.56%. Also, the viability, T/C (second compound 10 µM, first compound 0.0316 µM) was 67.2%; the viability, T/C (second compound 10 µM, first compound 0.1 µM) is 59.9%; the viability, T/C (second compound 10 µM, first compound 0.316 µM) is 64.2%; the viability, T/C (second compound 10 µM, first compound 1 µM) was 41.5%; the viability, T/C (second compound 10 µM, first compound 3.16 µM) is 0.51%; the viability, T/C (second compound 10 µM, first compound 10 µM) was 0.22%.
With `C#Cc1c(F)ccc2cc(O)cc(-c3ncc4c(N5CC6CCC(C5)N6)nc(OCC56CCCN5CC(F)C6)nc4c3F)c12` (centres undefined), the viability, T/C is, setting by setting: (compound 0.0316 µM) 104% [middle of 8 runs]; (compound 0.1 µM) 106% [middle of 8 runs]; (compound 0.316 µM) 106% [middle of 8 runs]; (compound 1 µM) 101% [middle of 8 runs]; (compound 3.16 µM) 85.1% [middle of 8 runs]; (compound 10 µM) 59.7% [middle of 8 runs]. Further, the IC50 (compound alone, run of 09/09/2024) was > 10000 nM and 8730 nM.
For `CC1(C)CCC(Nc2ncc(C(F)(F)F)c(-c3c[nH]c4c(P(C)(C)=O)c(C#N)ccc34)n2)CN1` (centres undefined), the viability, T/C is, setting by setting: (compound 0.000949 µM) 107% (2×) and 108% and 102%; (compound 0.003 µM) 93.6% [middle of 4 runs]; (compound 0.00949 µM) 58.3% [middle of 4 runs]; (compound 0.0949 µM) 22.4% [middle of 4 runs]; (compound 0.3 µM) 19.5% [middle of 4 runs]. For the setting “curve of compound”, the IC50 was 13.6 nM [middle of 4 runs].
On to `CC(=O)OC12COC1CC(O)C1(C)C(=O)C(O)C3=C(C)C(OC(=O)C(O)C(NC(=O)OC(C)(C)C)c4ccccc4)CC(O)(C(OC(=O)c4ccccc4)C21)C3(C)C` (centres undefined), for which the viability, T/C runs as follows: (compound 0.0316 µM) 3.82% [middle of 4 runs]; (compound 0.1 µM) 4.87% [middle of 4 runs]; (compound 0.316 µM) 5.01% [middle of 4 runs]; (compound 1 µM) 4.69% [middle of 4 runs]; (compound 3.16 µM) 6.26% [middle of 4 runs]; (compound 10 µM) 8.18% [middle of 4 runs]. The IC50 (curve of compound) was less than 31.6 nM.
